For one assay, the target named is T1, CK2α–CK2β interaction (Homo sapiens, UniProt P68400).
T1 construct: made in house
As to the kind of experiment: In vitro CK2α–CK2β interaction assay. The note with it: read-out: inhibition of subunit interaction. In kind it is binding. As for the experimental part:
Figure 4 Inhibitory activity of a TAT-Pc analogue in vitro. (A) CK2 holoenzyme (100 nM) was incubated in the presence of increasing concentrations of TAT-Pc 13 for 15 min at 4 °C. CK2 activity was then determined with CK2β-dependent or independent peptide substrates; (B) [^35S]-labeled CK2α was incubated with biotinylated MBP-CK2β immobilized on streptavidin coated plates (preformed complex) in the absence (1) or presence (2) of TAT-Pc 13. Alternatively, [^35S]-labeled CK2α was incubated with TAT-Pc 13 (3) or random TAT-Pc 13 (4) and then with immobilized biotinylated MBP-CK2β. After washing, the amount of [^35S]-labeled CK2α remaining in the complex was determined by radioactivity counting. Representative data shown from two independent experiments. Results are presented as mean ± s.d. of triplicates.
The CK2α–CK2β interaction assay involved competition between plate-bound biotinylated MBP–CK2β and various cyclic peptides for binding to [^35S] methionine-labelled CK2α. The assay was performed as previously described in [15].

For a further assay, the target named is T2, CK2α (Homo sapiens, UniProt P68400).
T2 construct: endogenous in cells; host or cells: MCF-10A (CK2β-silenced by pLKO1 lentiviral shRNA; WT as comparison)
As to the kind of experiment: Thermal shift assay in cell lysates. In kind it is binding. The method, then: Thermal shift assay (TSA) is based on the biophysical principle of ligand-induced thermal stabilization of target proteins. This assay can be used to detect protein–ligand interactions in complex cell extracts. Therefore, we have generated thermal melting curves from cell extracts, in which the extent of CK2 unfolding was measured. The assays were performed on WT or CK2β-depleted MCF-10A cell extracts incubated with 50 µM of TAT or TAT-Pc 13 and exposed to increasing temperatures.
Figure 5 Thermal shift assay in cell lysates. CK2β-depleted MCF-10A cell lysates were treated with 50 µM TAT or TAT-Pc 13 (A), or with PBS (Phosphate-buffered saline) or CK2β (B) for 30 min at room temperature. The respective lysates were divided into 20 µL aliquots and heated individually at different temperatures for 3 min. After centrifugation, the supernatants were assayed for CK2 activity with the CK2β-independent peptide substrate. Representative data shown from two independent experiments in duplicate.
CK2β-depleted MCF-10A cell lysates prepared in 50 mM Tris-HCl pH 7.5, 150 mM NaCl, and 2% glycerol supplemented with Complete Protease Inhibitor Cocktail (Sigma, #P8340) were divided into four aliquots with two being treated with 50 µM TAT or […] and the other two aliquots with CK2β or PBS (control). […]

Another assay has as its system 786-0. The experiment in a line: Cell death of cancerous cell line. In kind it is cell-based.
For assay [1], the target named is T3, CK2α/CK2β interaction in MCF-10A cells (Homo sapiens, UniProt P68400).
T3 construct: endogenous in cells; host or cells: MCF-10A (WT)
As to the kind of experiment: CK2β immunoprecipitation from treated cells, Western blot of CK2α. In kind it is cell-based. The note with it: WT MCF-10A cells, 50 µM for 2 h, compared with TAT. The method, then: To assess the cell-penetrating properties of TAT-Pc 13, we used a tetramethylrhodamine-conjugated TAT-Pc 13 analogue (TAMRA-TAT-Pc 13). The cellular uptake of this fluorescently labeled peptide was very rapid: only 2 min after incubation, the peptide was detectable in MCF-10A cells and plateauing after 5 min (Figure 7A). The impact of TAT-Pc 13 cell uptake on the expression of the CK2 subunits in WT and CK2β-depleted MCF-10A cells was evaluated by Western blot. […] We next evaluated the effect of TAT-Pc 13 on the CK2 subunit association using two independent strategies. First, CK2β was immunoprecipitated in extracts of MCF-10A cells treated with TAT or TAT-Pc 13 and the amount of CK2α recovered in the immunoprecipitates was analyzed by Western blot.
Figure 7 Uptake and cellular effects of TAT-Pc 13. (A) kinetic of TAMRA-TAT-Pc 13 uptake in MCF-10A cells; (B) WT or CK2β-depleted MCF-10A cells were incubated with 50 µM TAT or TAT-Pc 13 for 8 h and the expression of CK2 subunits was evaluated by Western blot; (C) anti-CK2β immunoprecipitates were prepared from WT MCF-10A cells incubated with 50 µM TAT or TAT-Pc 13 for 2 h. Presence of CK2 subunits in the corresponding immunoprecipitates was determined by Western blot; (D) in situ proximity ligation images of MCF-10A cells incubated with 50 µM TAT (a,b,d) or TAT-Pc 13 (c) for 6 h. […]

Where a SMILES comes first, the peptide text is derived from it. Bridges are numbered along the chain shown (N, C = ends).

T2 sequence (P68400 whole entry): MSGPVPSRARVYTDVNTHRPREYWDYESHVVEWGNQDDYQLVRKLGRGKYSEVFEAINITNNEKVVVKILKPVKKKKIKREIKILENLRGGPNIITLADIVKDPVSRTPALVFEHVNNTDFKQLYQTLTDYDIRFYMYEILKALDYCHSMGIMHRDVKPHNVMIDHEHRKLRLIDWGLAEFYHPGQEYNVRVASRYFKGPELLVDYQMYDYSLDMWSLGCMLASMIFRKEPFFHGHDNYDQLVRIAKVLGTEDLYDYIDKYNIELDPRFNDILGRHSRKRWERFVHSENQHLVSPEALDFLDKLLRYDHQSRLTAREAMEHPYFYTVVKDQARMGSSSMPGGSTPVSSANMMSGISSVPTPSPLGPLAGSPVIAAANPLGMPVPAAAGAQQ
T1 sequence (P68400 whole entry): as above
T3 sequence (P68400 whole entry): as above

As usually defined, the inhibition is how much of the control response was suppressed. For `CC[C@H](C)[C@@H]1NC(=O)[C@H](CCCCN)NC(=O)[C@H](Cc2ccccc2)NC(=O)CNC(=O)[C@H](Cc2ccc(O)cc2)NC(=O)[C@H](CC(C)C)NC(=O)[C@H](CCCNC(=N)N)NC(=O)CNC(=O)CNC(=O)[C@@H](NC(=O)[C@H](CCC(N)=O)NC(=O)[C@@H]2CCCN2C(=O)[C@@H]2CCCN2C(=O)[C@H](CCCNC(=N)N)NC(=O)[C@H](CCCNC(=N)N)NC(=O)[C@H](CCCNC(=N)N)NC(=O)[C@H](CCC(N)=O)NC(=O)[C@H](CCCNC(=N)N)NC(=O)[C@H](CCCNC(=N)N)NC(=O)[C@H](CCCCN)NC(=O)[C@H](CCCCN)NC(=O)[C@H](CCCNC(=N)N)NC(=O)CN)CCCCNC(=O)CNC(=O)CNC(=O)[C@H](Cc2c[nH]cn2)NC1=O` [TAT-Pc 13] (H-GRKKRRQRRRPPQKGGRLYGFKIHGG; lactam 14-C; N-terminus assumed), the inhibition at 50 µM on CK2α–CK2β interaction was 80%. Besides, the “shift in the melting curves” value at CK2α (CK2β-depleted MCF-10A cell extracts, 50 µM peptide, 30 min at room temperature, 3 min heating, read-out CK2 activity) is 4 °C. In addition, on CK2α (extracts from WT MCF-10A cells, not shown), the “thermal shift in WT cell extracts” value is “no thermal shift”. Moreover, in the assay with 786-0, the “induction of cell death” value was “induce cell death”. Further, in assay [1], the “CK2α recovered in CK2β immunoprecipitates” value was “significantly less CK2α”.

The values above are taken from article PMC5374420, “In Search of Small Molecule Inhibitors Targeting the Flexible CK2 Subunit Interface” (Pharmaceuticals, 2017).
